Data published in patent US8916564B2, “Substituted pyrido[1,2-a]pyrazines for the treatment of neurodegenerative and neurological disorders” (priority 2012, dated 2014).

Molecular target: γ-secretase (Cricetulus griseus, UniProt G3HNF2)
Experiment: Cell-Based γ-Secretase Assay with ELISA Readout (production of amyloid beta protein Aβ(1-42))
Settings: human WT-APP overexpressing CHO cells; Aβ(1-42) ELISA; geometric mean of 2-4 determinations (b: single determination; c: geometric mean of ≧5 determinations)
Method: The ability of compounds to modulate production of amyloid beta protein Aβ(1-42) was determined using human WT-APP overexpressing CHO cells. Cells were plated at 22,000 cells/100 μL well in 96 well tissue culture treated, clear plates (Falcon) in DMEM/F12 based medium and incubated for 24 hours at 37° C. […] Compounds were added in fresh medium to achieve 1% final DMSO. Appropriate vehicle or inhibitor controls were added into control wells individually to obtain minimum or maximum inhibition values, respectively, for the assay signal window before the plates were incubated for ˜24 hours at 37° C. This procedure produces conditioned media in each well which is tested for Aβ(1-42) levels in the ELISA detection step described next. The remaining cell cultures in each well are also tested for cell toxicity as described below.
Coating of ELISA assay plates was initiated by addition of 50 μL/well of an in-house Aβ(1-42) specific antibody at (3 μg/mL) in 0.1 M NaHCO3 (pH 9.0) into black 384-well Maxisorp® plates (Nunc) and incubated overnight at 4° C. […] Cell toxicity was also measured in the corresponding remaining cells after removal of the conditioned media for the Aβ(1-42) assay by a colorimetric cell proliferation assay (CellTiter 96®AQueous One Solution Cell Proliferation Assay, Promega) according to the manufacturer's instructions. […]

## Cc1cn(-c2ccc3n(c2=O)CCN(CC2CC(c4ccc(Cl)c(C(F)(F)F)c4)=NO2)C3=O)cn1 (stereo not shown) [Example 32, 2-({3-[-chloro-3-(trifluoromethyl)phenyl]-4,5-dihydro-1,2-oxazol-5-yl}methyl)-7-(4-methyl-1H-imidazol-1-yl)-3,4-dihydro-2H-pyrido[1,2-a]pyrazine-1,6-dione]
  IC50: 429 nM
